The test system of this assay is human estrogen receptor α (hERα) or β receptor (hERβ). In words: in vitro transactivation bioassay (estrogenic activity) in recombinant CHO cells co-transfected with hER, rat oxytocin promoter and luciferase reporter. In kind it is cell-based. The settings on record: for Potency Transactivation (% relative to 17β-estradiol): agonist potency ratio vs estradiol, CHO cells, luciferase reporter, receptor subtype not given; for β/α ratio: ratio of hERβ to hERα. Here is the method:
The estrogenic and antiestrogenic activity of compounds is determined in an in vitro bioassay with recombinant Chinese hamster ovary (CHO) cells stably co-transfected with the human estrogen receptor α (hERα) or β receptor (hERβ), the rat oxytocin promoter (RO) and the luciferase reporter gene (LUC). The estrogenic activity (potency ratio) of a test compound to stimulate the transactivation of the enzyme luciferase mediated via the estrogen receptors hERα or hERβ is compared with the standard estrogen estradiol. The antiestrogenic activity (potency ratio) of a test compound to inhibit the transactivation of the enzyme luciferase mediated via the estrogen receptors hERα or hERβ by the estrogen estradiol is compared with the standard ICI 164.384 (=(7α, 17β)-N-butyl-3,17-dihydroxy-N-methylestra-1,3,5(10)-triene-7-undecanamide).
(A reporter such as luciferase makes a cellular process visible.)

With `CCCC(=O)Oc1ccc(C2Oc3ccc(OC(=O)CCC)cc3C(Cc3ccccc3)C2CC)cc1` (racemic) [Compound 6a], the “Potency Transactivation (% relative to 17β-estradiol)” value is listed as “+++ (+++ >10%)” and the β/α ratio result is reported as “+++ (+++ >30)”.
Consider `CCC1C(Cc2ccccc2)c2cc(OC(=O)C(C)(C)C)ccc2OC1c1ccc(OC(=O)C(C)(C)C)cc1` (racemic) [Compound 6b], for which the “Potency Transactivation (% relative to 17β-estradiol)” value was “+ (+ between 0.1-4%)” and the β/α ratio entry is on record as “+ (+ between 3.5-10)”.
With `CCC1C(Cc2ccccc2)c2cc(O)ccc2OC1c1ccc(O)cc1` (stereo not drawn) [Compound 5b], the “Potency Transactivation (% relative to 17β-estradiol)” value is reported as “+++ (+++ >10%)” and the β/α ratio entry was “+++ (+++ >30)”.

These data come from US7846966B2, “Chroman derivatives as estrogenic compounds” (N.V. Organon, priority 2000, dated 2010).
